# In patent US9326972B2, “Use of phenylmethimazoles, methimazole derivatives, and tautomeric cyclic thiones for the treatment of autoimmune/inflammatory diseases associated with toll-like receptor overexpression” (Ohio University, priority 2004, dated 2016):
# Assays:
# [1] = tested on: TLR3; assay: Inhibition of IFN-β- or dsRNA transfection-increased TLR3, PKR, MHC class I RNA in FRTL-5 thyrocytes (Northern/PCR); type: cell-based, rat; settings: for % TLR3 Inhibition vs Control: 3 replicates
# Experimental: FIG. 4. Phenylmethimazole (C10) and Methimazole (MMI) inhibit the ability of IFN-β to increase TLR3, PKR, and MHC class I RNA levels in FRTL-5 thyrocytes. Cells were incubated with or without 100 U/ml of IFN-β for 3 hours in the presence of dimethyl sulfoxide (DMSO), C10, or MMI. DMSO is the vehicle control. Northern blots were performed with 20 ug of total RNA to detect TLR 3, PKR, MHC I, and GAPDH using radiolabeled cDNA probes. Data are representative of multiple experiments. As was the case for Poly (I:C) transfection in FIG. 2B, IFN-β increased TLR3.
# We evaluated the ability of C10 and MMI to inhibit TLR3 expression and signaling. C10 prevented the ability of dsRNA transfection and incubation with IFN-β to increase TLR3RNA levels in FRTL-5 cells, as measured by PCR (FIG. 4A). […] DMSO is the vehicle for C10 because of the hydrophobicity of C10; it had no significant effect on basal activity and was used as the control value in all experiments described herein.
# The C-10 and MMI reduced the ability of IFN-β to increase PKR and MHC class I RNA levels, albeit relatively less than TLR3 (FIG. 4B). […] We questioned the C10 mechanism of action.
# RNA Isolation and Northern Analysis. […] .
# RT-PCR. DNA was removed from total RNA using the DNA-free Kit (Ambion) according to the manufacturer's instructions. One μg of RNA was used to synthesize cDNA using the Advantage RT-for-PCR Kit (BD Biosciences) according to the manufacturer's protocol. Fifty ng of cDNA was subsequently used for PCR of TLR-3, and β-Actin; 250 ng of cDNA was used for PCR of IFN-β. The primers used for amplification of human TLR-3 and β-Actin have been previously described (K. U. Saikh, et al., Clin Diagn Lab Immunol, 10:1065-73 (2003)).
# [2] = tested on: IFN-β promoter; assay: IFN-β promoter luciferase reporter in FRTL-5 thyrocytes; type: cell-based, rat
# Experimental: FIG. 5. Phenylmethimazole (CIO) and Methimazole (MMI) inhibit the ability of Poly (I:C), lipopolysaccharide (LPS) and IL-1β to increase IFN-β gene expression (Top Left) and IRF-3 transactivation (Top Right) in FRTL-5 thyrocytes. (Top Left) Cells were co-transfected with IFNβ-Luc and control vector (pRLTk-Int), then treated with or without (−) Poly (I:C) (100 μg/ml), LPS (100 ng/ml), or IL-1β (10 ng/ml) in the presence of the vehicle (DMSO) alone (−), C10, or MMI for 6 hours. Data was obtained with the Dual Luciferase Assay system. (Top Right) Cells were co-transfected with Gal4 DBD/IRF-3 and Gal4-Luc then treated with nothing (−), poly (I:C), LPS, or IL-1β as in (Top Left) in the presence of DMSO or C10 for 6 hours. Data was obtained by Luciferase assay. Also shown is a graphic depiction (Bottom) of how the cis reporting system is working. Data are representative of multiple experiments.
# C10, at 0.5 mM, inhibited the ability of poly (I:C) to increase IFN-β promoter activity (luciferase luminescence; P<0.01) when incubated with FRTL-5 thyrocytes transfected with pIFN-β-luc constructs (FIG. 5 Top Left, Poly (I:C) vs untreated (−)).
# Plasmids for Reporter Gene Assays. Human IRF-3 was amplified from human cDNA and cloned into pCR 2.1 by the TOPO/TA (Invitrogen, Carlsbad, Calif.) cloning method, and then sequenced. […]
# [3] = tested on: horses; assay: Peritonitis and endotoxic shock in horses induced by intraperitoneal caecal fluid; type: in vivo, horse
# [4] = tested on: HAEC; assay: IFN-β-induced IRF-1 and Stat1 phosphorylation in human aortic endothelial cells (immunoblot); type: cell-based
compound,measurement,setting,value
"Cn1c(-c2ccccc2)cnc1S [Compound C10, 5-Phenylmethimazole]",decrease of TLR3 and IFN-β-mRNA levels in thyrocytes vs solutions with DMSO,[1]; C10 stored in aqueous cyclodextrin preparation for 6 weeks prior to use,equally effective
same,IFN-β increased MHC class I and PKR mRNA levels,"[1]; FRTL-5, 100 U/ml IFN-β 3 hours",significantly decreased
same,IFN-β-increased TLR3 RNA levels,"[1]; FRTL-5, 100 U/ml IFN-β 3 hours, C10 0.5 mM, MMI 5 mM",totally prevented
same,IFN-β increased MHC class I and PKR mRNA levels,"[1]; FRTL-5, 100 U/ml IFN-β 3 hours, listed as C-10",reduced
same,basal level of TLR 3 mRNA,"[1]; FRTL-5, no IFN-β",slightly reduced
same,% TLR3 Inhibition vs Control,"[1]; IFN-β increased TLR3 RNA, C10 0.1 mM in Excip.",90%
same,% TLR3 Inhibition vs Control,"[1]; dsRNA increased TLR3 RNA, C10 0.1 mM in DMSO",90%
same,LPS- or IL-1β-increased IFN-β luciferase activity,"[2]; FRTL-5, LPS 100 ng/ml or IL-1β 10 ng/ml, 0.5 mM C-10, 5 mM MMI, P<0.05 or better",inhibited the increase
same,poly (I:C)-increased IFN-β promoter activity (luciferase),"[2]; FRTL-5, Poly (I:C) 100 μg/ml, 6 hours, C10 0.5 mM, P<0.01",inhibited
same,effectiveness of treatment,[3]; 10 animals so treated,100%
same,time to disappearance of signs of collapse or depression after the C-10 bolus,[3]; C10 2 mg/kg intravenous bolus at 12 hours,≤ 15 min
same,survival rate,"[3]; endotoxemia and shock due to septic peritonitis, intraperitoneal inoculation of intestinal flora",100%
same,Stat1 serine phosphorylation at residue 727,"[4]; 100 U/mL hIFN-β 2 hours, 1 mM C10",decreased
same,IFN-β induced Stat1 phosphorylation (Y701),"[4]; 2 hours, C10 1 mM",decrease
same,IFN-β induction of IRF-1 protein,"[4]; 2 hours, C10 1 mM",strongly decreased
